Data: article PMC11434422 (2024)

Assays:
[1] = tested on: ssDNA (ssDNA-compDNA2 hybridized to anchorDNA2) (DNA, single strand) TGTGTAGTGCGGGTTTTTTTTTTGAGATGCAGATCCTGT; assay: SPR, multi-cycle injections; conditions: 150 mM Li+, 10 mM Ca2+; HBS-EP pH 7.4, 10 mM HEPES, 3 mM EDTA, 0.05% P20, 1% DMSO; hemin 10-100 µM; highest hemin 100 µM; legend: minimal binding
[2] = tested on: c-MYC-G3 (c-MYC-G3-compDNA1 hybridized to anchorDNA1) (DNA, other) TGGGGAGGGTGGGGAATTTTTTTTTCGTGTATTGCTC; assay: SPR, multi-cycle kinetics, 1:1 fit; conditions: 150 mM Li+, 10 mM Ca2+; HBS-EP pH 7.4, 10 mM HEPES, 3 mM EDTA, 0.05% P20, 1% DMSO; hemin 10-100 µM

C=CC1=C(C)C2=Cc3c(C=C)c(C)c4[n]3[Fe]([Cl])[n]3c(c(C)c(CCC(=O)O)c3=CC3=NC(=C4)C(C)=C3CCC(=O)O)=CC1=N2
binding [1]: no
KD [2]: 263 ± 3 µM
